{
  "source": "patent US20230355646A1",
  "about": "“AUTOPHAGY ACTIVATOR” (Resonac Corporation, priority 2020, published 2023)",
  "tested_on": "ATG5 gene",
  "assay": "ATG5 gene expression promoting effect in human senescent fibroblasts (quantitative real-time PCR)",
  "format": "cell-based",
  "description": "Normal human fibroblasts (NB1RGB, RIKEN BRC Cell Bank) were cultured until confluent in D-MEM medium (manufactured by Sigma-Aldrich) to which 10% fetal bovine serum (manufactured by MP Biomedicals) was added. Thereafter, the cells were treated with 250 μM aqueous hydrogen peroxide for 2 hours, and cultured for 24 hours in D-MEM medium to which fresh 10% fetal bovine serum was added. The treatment with aqueous hydrogen peroxide and the cell culture operation were repeated three times, and the obtained fibroblasts were used as senescent fibroblasts.\nThe prepared senescent fibroblasts were prepared at a seeding density of 10000 cells/cm^2 and cultured for 24 hours in D-MEM medium (manufactured by Sigma-Aldrich) to which 10% fetal bovine serum (manufactured by MP Biomedicals) was added. […]\nThen, using Nucleospin (registered trademark) RNA kit (manufactured by Takara Bio Inc.), RNA was extracted from senescent fibroblasts or normal human fibroblasts in each example, and cDNA was synthesized from the obtained RNA. Next, using this cDNA as a template, by quantitative real-time PCR, the expression level of each gene was quantified using primers (manufactured by Takara Bio Inc.) specific to the LC3 gene, ATG5 gene, and ATG7 gene, respectively. […]",
  "data": [
    {"smiles": "COc1ccc([C@@H]2CC(=O)c3c(O)cc(O[C@@H]4O[C@H](CO[C@@H]5O[C@@H](C)[C@H](O)[C@@H](O)[C@H]5O)[C@@H](O)[C@H](O)[C@H]4O)cc3O2)cc1O", "note": "[Comparative Example 2, hesperidin]", "values": [
      {"measurement": "Relative gene expression level ATG5", "setting": "10^−2% (V/V) methyl hesperidin or hesperidin, additional ingredient where in the example, 24 hours, Comparative Example 1 (DMSO) = 1.00", "result": 0.93},
      {"measurement": "expression level of the ATG5 gene (in words)", "setting": "compared to DMSO only of Comparative Example 1", "result": "more decreased"}
    ]}
  ]
}
